Where two headings read alike, the source gives them in different places.
Assays:
TYR [1] = target: T1, TYR (Agaricus bisporus, UniProt C7FF04); test: TYR-site blocking affinity ultrafiltration screening with HPLC; conditions: specific ligand when (Ab − Ae)/Ab ≥ 50% and (Ac − Ae)/Ac ≥ 50%; TYR 0.1 mg/mL, 30 °C, 30 min, 5000× g; peaks of PLR extract
Target sequence in this assay (C7FF04 1-392 limits assumed): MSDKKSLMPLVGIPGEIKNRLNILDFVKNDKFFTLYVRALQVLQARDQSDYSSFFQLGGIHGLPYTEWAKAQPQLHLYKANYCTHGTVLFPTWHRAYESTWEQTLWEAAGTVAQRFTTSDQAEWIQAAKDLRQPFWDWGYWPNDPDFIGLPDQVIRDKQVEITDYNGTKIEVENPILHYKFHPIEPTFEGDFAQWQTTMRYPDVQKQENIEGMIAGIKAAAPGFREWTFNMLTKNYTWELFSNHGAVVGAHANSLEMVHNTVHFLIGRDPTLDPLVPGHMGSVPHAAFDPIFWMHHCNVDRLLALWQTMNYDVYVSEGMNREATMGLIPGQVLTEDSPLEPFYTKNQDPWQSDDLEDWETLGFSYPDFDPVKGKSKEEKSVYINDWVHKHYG
Procedure: PLR-extract solution (100 µL) mixed with 100 µL diluted TYR solution and incubated at the best UF parameters. The unbound compounds can pass through the ultrafiltration membrane into the filtrates (F1), whereas the enzyme-ligand complexes remained in the chamber. After washing the retained complexes twice with 200 µL PBS (pH 6.8) to remove the residual unbound compounds, 200 µL methanol (80% (v/v)) was added into chamber and ultrasonic for 15 min to disrupt the complexes and release the ligands. The mixture was then centrifuge at 5000× g for 15 min, the filtrates (F2) containing the selected compounds were passed through a 0.45 µm filter membrane prior to HPLC analysis. For blank groups, PBS (pH 6.8) containing 2% DMSO was used to incubate with the TYR solution, followed by performance of the protocol described here. All experiments were performed in triplicate.
The PLR extract solution was added to the reaction solution and the protocol described in Section 2.5 was followed prior to HPLC analysis. All experiments were performed in triplicate.

TYR [2] = target: T1, TYR; test: TYR inhibit assay (spectrophotometry, L-tyrosine substrate); assay type: biochemical; set-up: purchased Sigma-Aldrich
Procedure: TYR inhibition by PLR extract solution, selected compounds and Kojic acid was analyzed by spectrophotometry. The solution comprised 50 µL of the mixed ligand solution (the corresponding ligand standards were diluted 50-fold with PBS) incubated with 50 µL TYR solution (0.1 U/mL ) for 30 min at room temperature, followed by the addition of 100 µL L-tyrosine (0.4 mM) and incubation for another 30 min at 30 °C. Absorbance was measured in triplicate at 480 nm and inhibition ratios were calculated from the mean of the triplicate observations according to Equation (2):(2) Inhibitory Ratio (%) = Ab−Ae/Ab × 100%, where Ab and Ae represented the absorption of blank groups and experiment groups, respectively.
Target sequence in this assay (C7FF04 1-392): as the sequence (C7FF04 1-392 limits assumed) above

[3] = TYR inhibitory activity, L-tyrosine 0.4 mM, absorbance at 480 nm, triplicate, read-out: IC50 ± SD

SMILES | binding to TYR in ultrafiltration with kojic acid site blocking (TYR [1]) | IC50 (TYR [2]) [µM] | IC50 (TYR [2]; [3]) [µM]
O=c1c(-c2ccc(O)cc2)coc2cc(O[C@@H]3O[C@H](CO)[C@@H](O)[C@H](O)[C@H]3O)ccc12 [Daidzin, daidzin] | potential specific TYR ligands | > 500 | 
O=c1c(-c2ccc(O)cc2)coc2cc(O[C@@H]3O[C@H](CO)[C@@H](O)[C@H](O)[C@H]3O)cc(O)c12 [Genistin, genistin] | potential specific TYR ligands |  | > 500
O=c1c(-c2ccc(O)cc2)coc2c(C3OC(COC4OCC(O)(CO)C4O)C(O)C(O)C3O)c(O)ccc12 (stereo not shown) [Mirificin, mirificin] | potential specific TYR ligands |  | 12.7 ± 2.77
O=c1c(-c2ccc(O)cc2)coc2c([C@@H]3O[C@H](CO)[C@@H](O)[C@H](O)[C@H]3O)c(O)ccc12 [Puerarin, puerarin] | potential specific TYR ligands | 9.83 ± 1.45 | 
O=c1c(-c2ccc(O)cc2)coc2c(C3OC(COC4OCC(O)(CO)C4O)C(O)C(O)C3O)c(O)cc(O)c12 (stereo not shown) [compound 7, genistein-8-C-apiosyl(16)-glucoside] | not recognized as specific TYR inhibitors |  | 
COc1ccc2c(c1)OC(=O)C=C(c1ccc(O)cc1)C(OC1OC(CO)C(O)C(O)C1O)C2 (stereo not shown) [compound 11, sophoroside A] | not recognized as specific TYR inhibitors |  | 

Reference: PMC6222779, “Enzyme-Site Blocking Combined with Optimization of Molecular Docking for Efficient Discovery of Potential Tyrosinase Specific Inhibitors from Puerariae lobatae Radix” (Molecules : A Journal of Synthetic Chemistry and Natural …, 2018)
